# Data from ChEMBL document CHEMBL5154782, “Discovery of Potent PROTACs Targeting EGFR Mutants through the Optimization of Covalent EGFR Ligands” (J Med Chem, 2022).
# Calls of active or inactive are those of the source. The calls are words filed in the database; no cut-off is given here.
# How the values were obtained:
# A-431 = assay: Antiproliferative activity against human A-431 cells expressing EGFR wildtype assessed as inhibition of cell proliferation incubated for 72 hrs by MTT assay; format: functional, cell-based; settings: A-431, 72 h
# [1] = system: von Hippel-Lindau disease tumor suppressor/Epidermal growth factor receptor (Homo sapiens), P00533+P40337 [L858R,T790M]; assay: Protac activity at VHL/EGFR L858R/T790M mutant in human NCI-H1975 cells assessed as induction of EGFR degradation at 100 nM incubated for 24 hrs by Western blot analysis relative to control; format: cell-based
# HCC827 [2] = assay: Antiproliferative activity against human HCC827 cells expressing EGFR deletion19 mutant assessed as inhibition of cell proliferation incubated for 72 hrs by MTT assay; format: functional, cell-based; settings: HCC827, 72 h
# [3] = target: von Hippel-Lindau disease tumor suppressor/Epidermal growth factor receptor (Homo sapiens, UniProt P00533+P40337, L858R/T790M); assay: Protac activity at VHL/EGFR L858R/T790M mutant (unknown origin) assessed as inhibition of EGFR incubated for 40 mins in presence of ATP by Kinase Glo luminescence assay; format: protein assay
# [4] = target: von Hippel-Lindau disease tumor suppressor/Epidermal growth factor receptor (Homo sapiens, UniProt P00533+P40337, L858R); assay: Protac activity at VHL/EGFR L858R mutant (unknown origin) assessed as inhibition of EGFR incubated for 40 mins in presence of ATP by Kinase Glo luminescence assay; format: protein assay
# NCI-H1975 [5] = assay: Antiproliferative activity against human NCI-H1975 cells expressing EGFR L858R/T790M mutant assessed as inhibition of cell proliferation incubated for 72 hrs by MTT assay; format: functional, cell-based; settings: NCI-H1975, 72 h
# HCC827 [6] = assay: Antiproliferative activity against human HCC827 cells expressing EGFR deletion19 mutant assessed as inhibition of cell proliferation; format: functional, cell-based
# [7] = target: T1, von Hippel-Lindau disease tumor suppressor/Epidermal growth factor receptor (Homo sapiens, UniProt P00533+P40337); assay: Protac activity at VHL/EGFR deletion19 mutant in human HCC827 cells assessed as induction of EGFR degradation; format: cell-based
# [8] = system: von Hippel-Lindau disease tumor suppressor/Epidermal growth factor receptor (Homo sapiens), P00533+P40337 [UNDEFINED MUTATION]; assay: Protac activity at VHL/EGFR/deletion19 in human HCC827 cells assessed as induction of EGFR degradation at 3 nM incubated for 24 hrs by Western blot analysis relative to control; format: cell-based
# [9] = system: von Hippel-Lindau disease tumor suppressor/Epidermal growth factor receptor (Homo sapiens), P00533+P40337 [L858R,T790M]; assay: Protac activity at VHL/EGFR L858R/T790M mutant in human NCI-H1975 cells assessed as decreased phosphorylated EFGR signaling at 100 nM incubated for 24 hrs by Western blot analysis; format: cell-based
# HCC827 [10] = assay: Antiproliferative activity against human […] assessed as inhibition of cell proliferation incubated for 72 hrs by MTT assay; format: functional, cell-based; settings: HCC827, 72 h
# [11] = system: von Hippel-Lindau disease tumor suppressor/Epidermal growth factor receptor (Homo sapiens), P00533+P40337 [L858R,T790M]; assay: Protac activity at VHL/EGFR L858R/T790M mutant in human NCI-H1975 cells assessed as induction of EGFR L858R/T790M ubiquitination at 30 uM in presence of NEDD8 […] inhibitor incubated for 24 hrs by Western blot analysis; format: cell-based
# [12] = target: T2, von Hippel-Lindau disease tumor suppressor/Epidermal growth factor receptor (Homo sapiens, UniProt P00533+P40337, T790M/L858R); assay: Protac activity at VHL/[…] cells assessed as induction of EGFR degradation incubated for 48 hrs by Western blot analysis; format: cell-based
# [13] = system: von Hippel-Lindau disease tumor suppressor/Epidermal growth factor receptor (Homo sapiens), P00533+P40337 [L858R,T790M]; assay: Protac activity at VHL/EGFR L858R/T790M mutant in human NCI-H1975 cells assessed as maximum EGFR degradation at 100 nM incubated for 48 hrs by western blot analysis; format: cell-based
# [14] = system: Epidermal growth factor receptor (Homo sapiens), P00533 [L858R,T790M]; assay: Induction of EGRF L858R/T790M mutant degradation in human NCI-H1975 cells at 30 nM incubated for 8 hrs by western blot analysis; format: cell-based
# [15] = target: T1, von Hippel-Lindau disease tumor suppressor/Epidermal growth factor receptor; assay: Protac activity at VHL/EGFR wildtype in human HeLa cells assessed as induction of EGFR degradation at 1000 nM incubated for 24 hrs by Western blot analysis; format: cell-based
# [16] = target: T1, von Hippel-Lindau disease tumor suppressor/Epidermal growth factor receptor; assay: Protac activity at VHL/EGFR wildtype in human HepG2 cells assessed as induction of EGFR degradation at 1000 nM incubated for 24 hrs by Western blot analysis; format: cell-based
# [17] = system: von Hippel-Lindau disease tumor suppressor/Epidermal growth factor receptor (Homo sapiens), P00533+P40337 [UNDEFINED MUTATION]; assay: Protac activity at VHL/EGFR deletion19 mutant in human HCC827 cells assessed as decreased phosphorylated ERK at 3 nM incubated for 24 hrs by Western blot analysis; format: cell-based
# BaF3 [18] = assay: Antiproliferative activity against mouse BaF3 cells expressing EGFR deletion19/T790M/C797S mutant assessed as reduction on cell growth incubated for 72 hrs by MTT assay; format: toxicity, cell-based; settings: BaF3, 72 h
# HCC827 [19] = assay: Inhibition of colony formation in human HCC827 cells at 1 to 30 nM incubated for 10 days by crystal violet based assay; format: functional, cell-based; settings: dose 1-30 nM, time 10.0 day
# NCI-H1975 [20] = assay: Inhibition of colony formation in human NCI-H1975 cells at 1 to 30 nM incubated for 10 days by crystal violet based assay; format: functional, cell-based; settings: dose 1-30 nM, time 10.0 day
# [21] = target: T1, von Hippel-Lindau disease tumor suppressor/Epidermal growth factor receptor; assay: Protac activity at VHL/EGFR wildtype in human HCT116 cells assessed as induction of EGFR degradation at 1000 nM incubated for 24 hrs by Western blot analysis; format: cell-based; settings: HCT-116
# [22] = system: von Hippel-Lindau disease tumor suppressor/Epidermal growth factor receptor (Homo sapiens), P00533+P40337 [UNDEFINED MUTATION]; assay: Protac activity at VHL/EGFR deletion19 mutant in human HCC827 cells assessed as maximum EGFR degradation at 100 nM incubated for 48 hrs by western blot analysis; format: cell-based
# PC-9 = assay: Antiproliferative activity against human PC-9 cells expressing EGFR deletion19/T790M/C797S mutant assessed as reduction on cell growth growth incubated for 72 hrs by MTT assay; format: functional, cell-based; settings: PC-9, 72 h
# [23] = system: von Hippel-Lindau disease tumor suppressor/Epidermal growth factor receptor (Homo sapiens), P00533+P40337 [UNDEFINED MUTATION]; assay: Protac activity at VHL/EGFR/deletion19 in human HCC827 cells assessed as induction of EGFR degradation at 30 nM incubated for 24 hrs by Western blot analysis relative to control; format: cell-based
# [24] = system: von Hippel-Lindau disease tumor suppressor/Epidermal growth factor receptor (Homo sapiens), P00533+P40337 [UNDEFINED MUTATION]; assay: Protac activity at VHL/EGFR deletion19 mutant in human HCC827 cells assessed as decreased phosphorylated EGFR at 3 nM incubated for 24 hrs by Western blot analysis; format: cell-based
# [25] = system: von Hippel-Lindau disease tumor suppressor/Epidermal growth factor receptor (Homo sapiens), P00533+P40337 [L858R,T790M]; assay: Protac activity at VHL/EGFR L858R/T790M mutant in human NCI-H1975 cells assessed as induction of EGFR degradation at 10 nM incubated for 24 hrs by Western blot analysis relative to control; format: cell-based
# [26] = system: von Hippel-Lindau disease tumor suppressor/Epidermal growth factor receptor (Homo sapiens), P00533+P40337 [L858R,T790M]; assay: Protac activity at VHL/EGFR L858R/T790M mutant in human NCI-H1975 cells assessed as induction of EGFR L858R/T790M ubiquitination at 30 uM in presence of lysosome chloroquine inhibitor incubated for 24 hrs by Western blot analysis; format: cell-based
# [27] = system: von Hippel-Lindau disease tumor suppressor/Epidermal growth factor receptor (Homo sapiens), P00533+P40337 [L858R,T790M]; assay: Protac activity at VHL/EGFR L858R/T790M mutant in human NCI-H1975 cells assessed as decreased phosphorylated ATK at 100 nM incubated for 24 hrs by Western blot analysis; format: cell-based
# [28] = system: von Hippel-Lindau disease tumor suppressor/Epidermal growth factor receptor (Homo sapiens), P00533+P40337 [UNDEFINED MUTATION]; assay: Protac activity at VHL/EGFR deletion19 mutant in human HCC827 cells assessed as decreased phosphorylated ATK at 3 nM incubated for 24 hrs by Western blot analysis; format: cell-based
# BaF3 [29] = assay: Antiproliferative activity against mouse BaF3 cells expressing EGFR L858R/T790M/C797S mutant assessed as reduction on cell growth incubated for 72 hrs by MTT assay; format: toxicity, cell-based; settings: BaF3, 72 h
# [30] = system: von Hippel-Lindau disease tumor suppressor/Epidermal growth factor receptor (Homo sapiens), P00533+P40337 [L858R,T790M]; assay: Protac activity at VHL/EGFR L858R/T790M mutant in human NCI-H1975 cells assessed as induction of EGFR degradation at 30 nM incubated for 48 hrs by Western blot analysis; format: cell-based
# NCI-H1975 [31] = assay: Antiproliferative activity against human NCI-H1975 cells expressing EGFR L858R/T790M/C797S mutant assessed as reduction on cell growth incubated for 72 hrs by MTT assay; format: functional, cell-based; settings: NCI-H1975, 72 h
# [32] = target: T2, von Hippel-Lindau disease tumor suppressor/Epidermal growth factor receptor; assay: Protac activity at VHL/EGFR L858R/T790M mutant in human NCI-H1975 cells assessed as induction of EGFR degradation incubated for 48 hrs by Western blot analysis; format: cell-based
# [33] = system: von Hippel-Lindau disease tumor suppressor/Epidermal growth factor receptor (Homo sapiens), P00533+P40337 [L858R,T790M]; assay: Protac activity at VHL/P-EGFR L858R/T790M mutant in human […] cells assessed as EGFR degradation at 30 nM incubated for 24 hrs followed by replacement with fresh medium without compound measured after 48 hrs by Western blot analysis; format: cell-based; settings: time 72.0 hrs
# [34] = system: von Hippel-Lindau disease tumor suppressor/Epidermal growth factor receptor (Homo sapiens), P00533+P40337 [L858R,T790M]; assay: Protac activity at VHL/EGFR L858R/T790M mutant in human NCI-H1975 cells assessed as decreased phosphorylated ERK at 100 nM incubated for 24 hrs by Western blot analysis; format: cell-based
compound,measurement,setting,value
C=CC(=O)N1CCC[C@H](n2c(Nc3ccccc3)nc3cnc(Nc4ccc(N5CCN(C)CC5)cc4)nc32)C1,IC50,A-431,7.09 µM
same,Activity,[1],< 20%
same,IC50,HCC827 [2],0.33 nM
same,IC50,[3],38 nM
same,IC50,[4],21 nM
same,IC50,NCI-H1975 [5],12 nM
O=C1CCC(N2Cc3c(NC(=O)CCCCCCN4CCN(c5ccc(Nc6cc7c(N8CCC(CO)CC8)nc(Nc8ccc(F)cc8)nc7cn6)nc5)CC4)cccc3C2=O)C(=O)N1 (stereo not given),IC50,HCC827 [6],220 nM
same,DC50,[7],34.8 nM
C=CC(=O)N1CCC[C@H](n2c(Nc3ccccc3)nc3cnc(Nc4ccc(N5CCN(CCCCCCCC(=O)N[C@H](C(=O)N6C[C@H](O)C[C@H]6C(=O)N[C@@H](C)c6ccc(-c7scnc7C)cc6)C(C)(C)C)CC5)cc4)nc32)C1,Activity,[8],70%
same,Activity,[9],Active
same,IC50,HCC827 [10],1.6 nM
same,IC50,A-431,> 10 µM
same,Activity,[11],Active
same,DC50,[12],0.49 nM
same,Emax,[13],86%
same,Activity,[14],Active
same,Activity,[1],77%
same,Activity,[15],Active
same,IC50,HCC827 [2],1.6 nM
same,Activity,[16],Active
same,Activity,[17],Active
same,IC50,BaF3 [18],481 nM
same,inhibition,HCC827 [19],Active
same,inhibition,NCI-H1975 [20],Active
same,Activity,[21],Active
same,Emax,[22],82%
same,IC50,PC-9,> 10 µM
same,Activity,[23],74%
same,Activity,[24],Active
same,Activity,[25],51%
same,Activity,[26],Active
same,IC50,NCI-H1975 [5],32 nM
same,Activity,[27],Active
same,Activity,[28],Active
same,IC50,BaF3 [29],669 nM
same,Activity,[30],Active
same,IC50,NCI-H1975 [31],> 10 µM
same,DC50,[32],1.56 nM
same,Activity,[33],Active
same,Activity,[34],Active
